The source made the active and inactive calls.
How the values were obtained:
Paired box protein Pax-8 = Paired box protein Pax-8 (Homo sapiens, UniProt Q06710); assay: inhibitors of PAX8-driven TPO luciferase reporter, dose response, RMG-I cells, cherry-pick (AID 687027); assay type: functional, cell-based;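 further: luciferase reporter driven by Pax8 target thyroperoxidase promoter measured by SteadyGlo luminescence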
[1] = cytotoxicity in OVCAR8 ovarian cancer cells, dose response, PAX8 project, cell-based, plate reader, dry powder samples (AID 743197); assay type: functional; details: OVCAR-8
[2] = NIH:OVCAR-3 ovarian cancer cell cytotoxicity, dose response, PAX8 inhibitor project, plate reader, dry powder samples (AID 743044); assay type: functional, cell-based
[3] = HEp-2 cell cytotoxicity, dose response, cytotoxicity control for RSV inhibitor project, HTS (AID 2410); assay type: functional; details: human respiratory syncytial virus
[4] = IGROV1 ovarian cancer cell cytotoxicity, dose response, PAX8 inhibitor project, plate reader, dry powder samples (AID 743043); assay type: functional, cell-based; details: IGROV-1
[5] = biological target: T1, Sentrin-specific protease 1 (Homo sapiens, UniProt Q9P0U3); assay: Dose response confirmation of small molecule inhibitors of the catalytic domain of the SUMO protease, SENP1 in a FRET assay.; assay type: functional; details: read-out: IC50_Mean
T1 sequence (Q9P0U3 whole entry): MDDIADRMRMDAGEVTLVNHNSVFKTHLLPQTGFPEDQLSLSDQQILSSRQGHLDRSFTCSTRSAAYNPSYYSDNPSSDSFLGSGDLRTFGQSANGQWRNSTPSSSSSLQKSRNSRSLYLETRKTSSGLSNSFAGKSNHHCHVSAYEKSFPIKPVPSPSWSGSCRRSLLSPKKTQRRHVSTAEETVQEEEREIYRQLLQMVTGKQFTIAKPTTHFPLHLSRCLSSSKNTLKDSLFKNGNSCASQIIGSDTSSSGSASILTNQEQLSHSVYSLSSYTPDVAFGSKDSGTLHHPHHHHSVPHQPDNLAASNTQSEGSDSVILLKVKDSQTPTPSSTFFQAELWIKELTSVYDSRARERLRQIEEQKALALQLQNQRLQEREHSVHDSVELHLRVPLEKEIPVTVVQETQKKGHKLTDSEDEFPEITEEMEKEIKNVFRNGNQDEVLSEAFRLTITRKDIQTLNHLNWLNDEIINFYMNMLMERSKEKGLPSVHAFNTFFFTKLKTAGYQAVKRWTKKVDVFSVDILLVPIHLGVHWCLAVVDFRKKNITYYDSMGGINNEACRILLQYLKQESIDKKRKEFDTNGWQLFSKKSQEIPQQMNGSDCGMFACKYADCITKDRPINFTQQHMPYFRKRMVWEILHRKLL

[6] = biological target: T1, Sentrin-specific protease 1; assay: potency of human SENP1 inhibitors, dose response, biochemical, kinetic FRET (AID 651697); assay type: functional; details: read-out: IC50_Mean
Leucine aminopeptidase = biological target: T2, Leucine aminopeptidase (Plasmodium falciparum 3D7, UniProt Q8IL11); assay: P. falciparum M17LAP inhibitors, primary screen, biochemical, fluorogenic H-Leu-NHMec substrate, 1536-well (AID 1619); assay type: functional
T2 sequence (Q8IL11 whole entry): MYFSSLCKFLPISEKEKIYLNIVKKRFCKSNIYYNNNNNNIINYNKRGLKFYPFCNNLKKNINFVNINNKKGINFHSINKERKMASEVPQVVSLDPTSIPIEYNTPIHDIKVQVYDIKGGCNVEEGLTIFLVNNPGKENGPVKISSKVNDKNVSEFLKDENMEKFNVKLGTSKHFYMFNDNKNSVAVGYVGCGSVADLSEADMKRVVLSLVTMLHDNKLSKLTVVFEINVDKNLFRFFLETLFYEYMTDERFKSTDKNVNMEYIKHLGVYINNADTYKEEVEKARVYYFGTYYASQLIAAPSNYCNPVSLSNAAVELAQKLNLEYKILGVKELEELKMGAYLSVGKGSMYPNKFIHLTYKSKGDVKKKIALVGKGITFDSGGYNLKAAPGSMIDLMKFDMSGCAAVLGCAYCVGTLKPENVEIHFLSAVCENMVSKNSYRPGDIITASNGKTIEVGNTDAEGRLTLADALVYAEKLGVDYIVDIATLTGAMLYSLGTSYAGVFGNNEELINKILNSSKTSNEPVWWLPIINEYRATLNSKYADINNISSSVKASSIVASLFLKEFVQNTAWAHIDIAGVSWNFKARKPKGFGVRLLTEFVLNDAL

Protein RecA = biological target: T3, Protein RecA (Mycobacterium tuberculosis, UniProt P9WHJ3); assay: Fluorescence Cell-Free Homogeneous Dose Retest to Identify Inhibitors of RecA-Intein Splicing Activity. [Related pubchem assays (depositor defined):AID2097, AID2223, AID489010, AID492950]; assay type: functional
T3 sequence (P9WHJ3 whole entry): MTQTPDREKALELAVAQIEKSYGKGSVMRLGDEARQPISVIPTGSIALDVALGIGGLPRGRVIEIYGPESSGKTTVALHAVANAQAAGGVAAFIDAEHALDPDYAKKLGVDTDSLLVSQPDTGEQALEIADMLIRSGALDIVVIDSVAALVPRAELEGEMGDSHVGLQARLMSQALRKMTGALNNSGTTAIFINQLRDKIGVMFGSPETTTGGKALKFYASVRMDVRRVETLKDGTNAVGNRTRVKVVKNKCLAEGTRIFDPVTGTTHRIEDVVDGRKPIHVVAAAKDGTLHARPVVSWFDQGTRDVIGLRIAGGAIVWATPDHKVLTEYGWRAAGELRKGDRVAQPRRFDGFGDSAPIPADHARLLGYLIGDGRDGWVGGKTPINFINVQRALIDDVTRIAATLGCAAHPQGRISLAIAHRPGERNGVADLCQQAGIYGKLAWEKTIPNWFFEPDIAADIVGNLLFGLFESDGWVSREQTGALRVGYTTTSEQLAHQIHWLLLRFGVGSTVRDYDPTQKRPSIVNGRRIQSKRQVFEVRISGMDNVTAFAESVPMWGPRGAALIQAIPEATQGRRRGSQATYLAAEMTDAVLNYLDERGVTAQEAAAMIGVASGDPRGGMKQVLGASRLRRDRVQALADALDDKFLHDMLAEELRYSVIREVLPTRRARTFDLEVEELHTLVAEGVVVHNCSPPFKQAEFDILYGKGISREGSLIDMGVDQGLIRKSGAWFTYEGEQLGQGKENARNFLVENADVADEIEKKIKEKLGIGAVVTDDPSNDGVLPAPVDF

Genome polyprotein = Genome polyprotein (dengue virus type 2, UniProt P29990); assay: Dengue-2 NS5 methyltransferase inhibitors, primary screen, biochemical, confirmation dose response (AID 588689); assay type: functional
[7] = biological target: T4, Replicative DNA helicase DnaB (Mycobacterium tuberculosis, UniProt P9WMR3); assay: DnaB intein splicing inhibitors, dose response, biochemical, cell-free fluorescence (AID 449749); assay type: functional
T4 sequence (P9WMR3 whole entry): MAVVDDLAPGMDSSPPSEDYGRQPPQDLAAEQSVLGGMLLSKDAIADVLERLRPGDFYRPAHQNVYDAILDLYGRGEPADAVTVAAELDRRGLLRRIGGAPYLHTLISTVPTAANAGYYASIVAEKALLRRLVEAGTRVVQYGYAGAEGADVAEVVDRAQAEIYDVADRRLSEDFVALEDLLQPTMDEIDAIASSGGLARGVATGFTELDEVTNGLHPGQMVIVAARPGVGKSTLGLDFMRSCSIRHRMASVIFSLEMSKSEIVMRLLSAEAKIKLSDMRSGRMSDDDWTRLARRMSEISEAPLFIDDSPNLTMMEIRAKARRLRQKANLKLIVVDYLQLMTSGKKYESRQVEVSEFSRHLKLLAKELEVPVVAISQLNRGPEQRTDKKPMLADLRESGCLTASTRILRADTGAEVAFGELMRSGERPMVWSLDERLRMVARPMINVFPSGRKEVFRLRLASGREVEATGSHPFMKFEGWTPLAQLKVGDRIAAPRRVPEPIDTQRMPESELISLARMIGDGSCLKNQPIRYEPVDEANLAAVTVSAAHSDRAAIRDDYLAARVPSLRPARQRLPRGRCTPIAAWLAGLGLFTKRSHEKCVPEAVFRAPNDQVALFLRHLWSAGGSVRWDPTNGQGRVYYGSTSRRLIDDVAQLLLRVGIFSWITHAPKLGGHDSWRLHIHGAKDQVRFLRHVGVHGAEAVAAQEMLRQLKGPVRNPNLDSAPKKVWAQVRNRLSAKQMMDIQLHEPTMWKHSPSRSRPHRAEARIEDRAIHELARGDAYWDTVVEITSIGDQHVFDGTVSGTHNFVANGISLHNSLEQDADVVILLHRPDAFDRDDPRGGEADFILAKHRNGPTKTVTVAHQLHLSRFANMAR

Sequence of Paired box protein Pax-8 (Q06710 whole entry): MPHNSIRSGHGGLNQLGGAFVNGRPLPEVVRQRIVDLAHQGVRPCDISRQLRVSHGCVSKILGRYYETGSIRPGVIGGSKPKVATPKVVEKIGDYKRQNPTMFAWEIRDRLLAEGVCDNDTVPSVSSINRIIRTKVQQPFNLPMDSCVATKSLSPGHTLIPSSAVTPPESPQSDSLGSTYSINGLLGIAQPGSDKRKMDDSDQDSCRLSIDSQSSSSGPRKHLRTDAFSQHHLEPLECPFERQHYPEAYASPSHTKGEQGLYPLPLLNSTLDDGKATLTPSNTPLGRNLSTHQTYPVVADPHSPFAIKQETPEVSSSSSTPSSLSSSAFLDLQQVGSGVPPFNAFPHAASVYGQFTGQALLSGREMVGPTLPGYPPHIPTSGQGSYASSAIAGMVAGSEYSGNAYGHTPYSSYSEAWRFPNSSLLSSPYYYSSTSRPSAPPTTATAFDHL
Sequence of Genome polyprotein (P29990 2492-3391 limits assumed): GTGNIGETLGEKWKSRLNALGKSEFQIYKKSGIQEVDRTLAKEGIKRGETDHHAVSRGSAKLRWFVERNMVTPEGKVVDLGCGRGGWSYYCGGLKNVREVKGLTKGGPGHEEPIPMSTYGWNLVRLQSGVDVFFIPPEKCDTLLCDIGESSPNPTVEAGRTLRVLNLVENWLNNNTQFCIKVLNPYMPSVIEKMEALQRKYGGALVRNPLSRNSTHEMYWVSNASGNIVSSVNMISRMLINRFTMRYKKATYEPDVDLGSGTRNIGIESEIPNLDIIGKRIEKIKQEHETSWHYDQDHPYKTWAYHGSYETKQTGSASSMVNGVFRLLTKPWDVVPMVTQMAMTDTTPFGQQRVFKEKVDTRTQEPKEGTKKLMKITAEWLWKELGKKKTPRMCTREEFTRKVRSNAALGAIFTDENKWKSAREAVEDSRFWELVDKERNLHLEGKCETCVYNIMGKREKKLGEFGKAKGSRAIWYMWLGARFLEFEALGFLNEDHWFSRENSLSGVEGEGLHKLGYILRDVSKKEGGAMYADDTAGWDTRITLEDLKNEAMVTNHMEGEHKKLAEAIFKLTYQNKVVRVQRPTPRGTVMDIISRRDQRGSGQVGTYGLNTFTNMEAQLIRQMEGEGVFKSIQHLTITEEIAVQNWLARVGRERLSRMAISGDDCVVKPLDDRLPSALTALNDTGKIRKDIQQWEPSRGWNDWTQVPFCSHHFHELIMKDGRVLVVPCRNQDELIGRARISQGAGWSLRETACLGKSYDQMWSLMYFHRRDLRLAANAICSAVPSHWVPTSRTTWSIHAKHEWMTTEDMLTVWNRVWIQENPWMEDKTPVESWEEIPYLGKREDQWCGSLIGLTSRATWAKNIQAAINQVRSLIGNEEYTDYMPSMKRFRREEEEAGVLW

C[C@@H]1CN([C@H](C)CO)S(=O)(=O)c2ccc(C#Cc3cccc(F)c3)cc2O[C@@H]1CN(C)C(=O)NC1CCCCC1
AC50 (Paired box protein Pax-8): 8.38 µM (active) | AC50 [1]: 33.6 µM (active) | AC50 [2]: 42.1 µM (active)

Cc1ccc(O)c(NC(=S)NC(=O)Cc2ccc(Cl)cc2)c1
IC50 (cells): 23.4 µM (active) | CC50 [3]: 29.4 µM (active)

O=C(Nc1cccc(F)c1)N1CCCCN2[C@@H](CO)[C@@H](c3ccc(-c4ccccc4F)cc3)[C@@H]2C1
AC50 (Paired box protein Pax-8): 21.1 µM (active) | AC50 [2]: 37.6 µM (active) | AC50 [4]: 26.9 µM (active)

COc1ccccc1NC(=O)Nc1nn(C)c2cccc(OC)c12
IC50 (cells): 41.2 µM (active) | CC50 [3]: 41.1 µM (active)

C[C@H]1CN([C@@H](C)CO)C(=O)c2c(c3ccccc3n2C)-c2ccccc2CO[C@@H]1CN(C)Cc1cccc(C(F)(F)F)c1
AC50 (Paired box protein Pax-8): 9.89 µM (active) | AC50 [1]: 43.7 µM (active) | AC50 [4]: 53 µM (active)

COc1ccc(C2C(C(C)=O)=C(C)N=c3s/c(=C\c4ccco4)c(=O)n32)c(OC)c1 (stereo not given)
IC50 [5]: 20.2 µM (inactive) | IC50 [6]: 24.9 µM (inactive)

C/C(CCC1CC(C)OC1=O)=N/Nc1nc(-c2ccccc2)cs1 (stereo not given)
IC50 (Leucine aminopeptidase): 30.8 µM (active)

Cc1ccc(-c2ccc(/C=N/NC3=NC(=O)C(CC(=O)O)S3)o2)c([N+](=O)[O-])c1 (stereo not given)
IC50 (Leucine aminopeptidase): 101 µM (active) | EC50 (Protein RecA): 10.5 µM (active) | IC50 (Genome polyprotein): 88.6 µM (active) | AC50 [7]: 26.5 µM (active)
